ChEMBL document CHEMBL3045859, “Search for monoglyceride lipase inhibitors: synthesis and screening of arylthioamides derivatives” (Med Chem Res, 2009)

Experiments:
[1] = target: T1, Fatty-acid amide hydrolase 1 (Homo sapiens, UniProt O00519); test: Inhibition of Homo sapiens (human) recombinant fatty acid amide hydrolase assessed as inhibition of [3H]-AEA hydrolysis after 10 min by liquid scintillation counting
T1 sequence (O00519 whole entry): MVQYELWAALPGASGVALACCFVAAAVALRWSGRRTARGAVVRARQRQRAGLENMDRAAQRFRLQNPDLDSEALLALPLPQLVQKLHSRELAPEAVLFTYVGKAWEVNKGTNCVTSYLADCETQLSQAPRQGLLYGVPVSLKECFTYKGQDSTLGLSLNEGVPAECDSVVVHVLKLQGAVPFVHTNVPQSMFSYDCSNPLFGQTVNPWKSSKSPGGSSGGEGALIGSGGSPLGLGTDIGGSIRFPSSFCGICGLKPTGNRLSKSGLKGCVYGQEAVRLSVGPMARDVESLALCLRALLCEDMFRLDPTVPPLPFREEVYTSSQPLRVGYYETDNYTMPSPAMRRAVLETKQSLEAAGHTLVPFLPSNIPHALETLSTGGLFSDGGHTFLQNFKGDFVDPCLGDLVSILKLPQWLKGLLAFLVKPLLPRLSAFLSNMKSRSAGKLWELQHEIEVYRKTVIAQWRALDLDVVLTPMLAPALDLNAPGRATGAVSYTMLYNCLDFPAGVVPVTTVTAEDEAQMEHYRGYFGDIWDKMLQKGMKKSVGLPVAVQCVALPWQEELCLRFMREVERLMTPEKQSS

[2] = target: T2, Monoglyceride lipase (Homo sapiens, UniProt Q99685); test: Inhibition of Homo sapiens (human) recombinant monoacylglycerol lipase assessed as inhibition of [3H]-2-oleolylglycerol hydrolysis after 10 min by liquid scintillation counting
T2 sequence (Q99685 whole entry): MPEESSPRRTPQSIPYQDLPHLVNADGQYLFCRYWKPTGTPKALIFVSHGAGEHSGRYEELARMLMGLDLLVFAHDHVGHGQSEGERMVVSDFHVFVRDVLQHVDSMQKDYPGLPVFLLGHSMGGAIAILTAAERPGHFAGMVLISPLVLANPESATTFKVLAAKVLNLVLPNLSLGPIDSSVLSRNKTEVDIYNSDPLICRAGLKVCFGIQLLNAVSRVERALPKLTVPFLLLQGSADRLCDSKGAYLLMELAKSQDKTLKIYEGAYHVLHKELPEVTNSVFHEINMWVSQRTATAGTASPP

Compound | IC50 [1] | IC50 [2]
S=C(c1ccc(Cl)cc1Cl)N1CCOCC1 [(2,4-DICHLOROPHENYL)(MORPHOLINO)METHANETHIONE] | > 1000 µM | > 1000 µM
S=C(c1ccc(Cl)cc1)N1CCOCC1 [(4-CHLOROPHENYL)(MORPHOLINO)METHANETHIONE] | 302 µM | 77.6 µM
c1ccc(-c2ccc(CN3CCOCC3)cc2)cc1 [4-(BIPHENYL-4-YLMETHYL)MORPHOLINE] | > 1000 µM | > 1000 µM
S=C(Cc1ccc(Cl)cc1)N1CCOCC1 | 77.6 µM | 14.8 µM
S=C(c1ccc(C2CCCCC2)cc1)N1CCOCC1 | > 1000 µM | > 1000 µM
S=C(c1ccccc1)N1CCCCC1 | > 1000 µM | > 1000 µM
O=C(c1ccc(-c2ccccc2)cc1)N1CCOCC1 | > 1000 µM | > 1000 µM
S=C(Cc1ccc(-c2ccccc2)cc1)NCCc1ccccc1 | 724 µM | 537 µM
S=C(Cc1ccccc1Cl)N1CCOCC1 | > 1000 µM | 24.5 µM
Cc1cccc(C(=S)N2CCCCC2)c1 | 61.7 µM | > 1000 µM
S=C(c1ccc(-c2ccccc2)cc1)N1CCOCC1 | 30.9 µM | 19.5 µM
S=C(c1cccc(Cl)c1)N1CCOCC1 [(3-CHLOROPHENYL)(MORPHOLINO)METHANETHIONE] | > 1000 µM | > 1000 µM
S=C(NCCc1ccccc1)c1ccc(Cl)cc1 | 407 µM | 437 µM
S=C(NCCc1ccccc1)c1ccc(Cl)cc1Cl | > 1000 µM | 79.4 µM
COC(=O)c1ccc(C(=S)N2CCOCC2)cc1 | > 1000 µM | 30.9 µM
Oc1ccc(C(=S)NCCc2ccccc2)cc1O | 724 µM | 525 µM
S=C(c1ccc(Cl)c(Cl)c1)N1CCOCC1 [(3,4-DICHLOROPHENYL)(MORPHOLINO)METHANETHIONE] | > 1000 µM | > 1000 µM
COc1ccc(CC(=S)N2CCOCC2)cc1OC | > 1000 µM | > 1000 µM
S=C(c1ccccc1Cl)N1CCOCC1 | > 1000 µM | 20 µM

Compound | IC50 [1] | IC50 [2]
Oc1ccc(C(=S)N2CCOCC2)cc1 [(4-HYDROXYPHENYL)(MORPHOLINO)METHANETHIONE] | 562 µM | 204 µM
S=C(NCCc1ccccc1)c1ccc(Br)cc1 | > 1000 µM | 97.7 µM
COC(=O)c1ccc(C(=S)NCCc2ccccc2)cc1 | > 1000 µM | 26.3 µM
Fc1ccc(C(=S)NCCc2ccccc2)cc1 | > 1000 µM | > 1000 µM
Clc1ccccc1CN1CCOCC1 | > 1000 µM | > 1000 µM
Oc1ccccc1C(=S)N1CCOCC1 [(2-HYDROXYPHENYL)(MORPHOLINO)METHANETHIONE] | > 1000 µM | 60.3 µM
S=C(NCCc1ccccc1)c1ccccc1Cl | > 1000 µM | 166 µM
S=C(Cc1ccc(-c2ccccc2)cc1)N1CCOCC1 | 30.9 µM | 5.75 µM
S=C(c1ccccc1)N1CCOCC1 [MORPHOLINO(PHENYL)METHANETHIONE] | > 1000 µM | > 1000 µM
O=[N+]([O-])c1cccc(C(=S)N2CCOCC2)c1 | 245 µM | 9.55 µM
S=C(Cc1ccccc1)N1CCOCC1 | > 1000 µM | > 1000 µM
O=C(c1ccccc1Cl)N1CCOCC1 [(2-CHLOROPHENYL)(MORPHOLINO)METHANONE] | > 1000 µM | > 1000 µM
S=C(NCCc1ccccc1)c1ccc(Cl)c(Cl)c1 | 53.7 µM | 75.9 µM
S=C(NCCc1ccccc1)c1ccccc1 [N-PHENETHYLBENZOTHIOAMIDE] | > 1000 µM | > 1000 µM
S=C(c1ccc(Br)cc1)N1CCOCC1 [(4-BROMOPHENYL)(MORPHOLINO)METHANETHIONE] | > 1000 µM | 31.6 µM
Clc1ccc(CN2CCOCC2)cc1 [4-(4-CHLOROBENZYL)MORPHOLINE] | > 1000 µM | > 1000 µM
O=C(c1ccc(Cl)cc1)N1CCOCC1 [(4-CHLOROPHENYL)(MORPHOLINO)METHANONE] | > 1000 µM | > 1000 µM
CN(C)c1ccc(C(=S)N2CCOCC2)cc1 [(4-(DIMETHYLAMINO)PHENYL)(MORPHOLINO)METHANETHIONE] | > 1000 µM | > 1000 µM
Cc1ccc(CC(=S)N2CCOCC2)cc1 | 49 µM | 24 µM
